Consider two compounds from PMC11748689, “Pharmacological and structural understanding of the Trypanosoma cruzi proteasome provides key insights for developing site-specific inhibitors” (The Journal of Biological Chemistry, 2024).

Assay type in all cases: biochemical
In assay [1] the target is native T. cruzi proteasome (chymotrypsin-like activity, β5) (Trypanosoma cruzi, UniProt V5BU39+V5C017). Briefly: Chymotrypsin-like activity assay (Proteasome-Glo), native T. cruzi proteasome. The method, then: (§1) Chymotrypsin-, trypsin-, and caspase-like activity assays were performed using a commercially available Proteasome-Glo 3-substrate system assay kit (catalog number G8532) (Promega Corporation) according to the manufacturers protocols and as previously described ([24]).
(§2) Prior to running assays, Proteasome-Glo buffer was used to reconstitute the luciferin detection reagent (containing a recombinant thermostable luciferase enzyme). The resuspended luciferin detection reagent was then mixed with Proteasome-Glo chymotrypsin-, trypsin- or caspase-like substrates (either 40 μM suc-Leu-Leu-Val-Tyr-aminoluciferin, 30 μM Z-Leu-Arg-Arg-aminoluciferin (Z is benzyloxycarbonyl) or 40 μM Z-Nle-Pro-Nle-Asp-aminoluciferin respectively (these concentrations represent 2x final assay concentrations)). These substrate mixtures were allowed to incubate at room temperature for 60 min prior to use to allow the removal of any contaminating free aminoluciferin.
(§3) When proteasome inhibitors were to be screened in the chymotrypsin, trypsin, and caspase assays, test compounds were dispensed into assay wells using an ECHO 550 acoustic dispenser (Labcyte) (final DMSO concentration 1%). Compounds were tested in either a 10-point concentration series (30 μM top final assay concentration, 1 in 3 dilution series) or a 12-point concentration series (30 μM top final assay concentration, 1 in 2.5 dilution series).
(§4) Proteasome assays were then performed as described above using Promega Proteasome-Glo 3-substrate system assay kit. […] Diluted proteasome (4 μl) was added to assay plates using an electronic multichannel pipette (Integra Biosciences Ltd) and the proteasome incubated with compound for 60 min at room temperature.
(§5) Following the 60 min incubation of proteasome and compounds, assays were initiated with the addition of 4 μl of a substrate mix (containing substrate and the luciferin detection reagent) using an electronic multichannel pipette. Final assay concentrations of substrates used were either 20 μM Suc-Leu-Leu-Val-Tyr-aminoluciferin, 15 μM Z-Leu-Arg-Arg-aminoluciferin, or 20 μM Z-Nle-Pro-Nle-Asp-aminoluciferin for chymotrypsin-, trypsin-, or caspase-like activity, respectively. Following a further 60 min assay incubation, luminescence was read using an EnVision 2102 Multilabel Reader (PerkinElmer, Inc) with 0.2 s per well reading time.
(§6) All data processing was performed using Microsoft Excel for Microsoft 365 software.
(§7) Nonlinear dose-response curve fitting was carried out using the Microsoft Excel add-in, XLfit (IDBS). Percentage inhibition data were either fitted to a standard 4-parameter logistic fit model (XLfit model 205; Equation 2) or a biphasic model (either XLfit model 300; Equation 3 or a custom biphasic model; Equation 4 (used in cases where the top and/or bottom parameters deviated from 100%/0% inhibition)).(2) y=A+(B−A)/1+(C/x)^D Where A = % inhibition at bottom, B = % inhibition at top, C = IC50, D = slope, x = inhibitor concentration and y = % inhibition.(3) y=(A/(1+10^(C−log(x))∗B))+((100−A)/(1+10^(D−log(x))∗B)) With A = % inhibition at midplateau, B = slope, C = log(IC50^A), D = log(IC50^B)).
(§8) All IC50 data generated were converted to pIC50 using Equation 5.

Assay [2] deals with recombinant Δβ1Δβ2 mutant T. cruzi proteasome (chymotrypsin-like activity) (Trypanosoma cruzi, UniProt V5BU39+V5C017). The assay is described as follows: biochemical. How it is done: (§9) Point mutations were created in individual subunits using overlapping PCR from the original templates using Polh and Tn7L primers outside the genes and suitable internal primers to introduce selected mutations. For Δβ1Δβ2, β1 Thr 55, and β2 Thr 67 were both mutated to Ala, the β4^R mutant was produced by mutating Phe 24 and Ile 29 to Leu and Met respectively in β4 subunit.
as §1, §2
(§10) Proteasome assays were carried out using 384-well, white, low-volume plates (catalog number 784904) (Greiner Bio-One) at room temperature (∼23 °C) in 8 μl reaction volumes. When activity checks were to be run in the presence or absence of a fixed concentration of proteasome inhibitor, 80 nL of the inhibitor (at a concentration 100x the required final assay concentration), or 80 nL dimethylsulfoxide (DMSO), were dispensed into assay plates using an Echo 550 acoustic dispenser (Labcyte).
(§11) A 1 in 2 dilution series of the various T. cruzi proteasome samples (native, recombinant WT, β4^R mutant, and Δβ1Δβ2 mutant) were produced in assay buffer (50 mM Tris–HCl, pH 7.5, 10 mM sucrose, 5 mM MgCl2, 1 mM DTT, 2 mM ATP, 150 mM NaCl, 1 mM EDTA, and 0.05 mg/ml bovine serum albumin). Subsequently, 4 μl of the various concentrations of diluted proteasome were added to assay plates using an electronic multichannel pipette (Integra Biosciences Ltd). When kinetic read activity checks were performed (Fig. 2), proteasome final assay concentrations used were 115 μg/ml, 115 μg/ml, and 230 μg/ml native proteasome (in the chymotrypsin, trypsin, and caspase assays, respectively), and 4.1 μg/ml, 3.4 μg/ml, or 1.4 μg/ml recombinant WT proteasome (in the chymotrypsin, trypsin, and caspase assays, respectively). When activity checks were to be run in the presence or absence of a proteasome inhibitor plates containing inhibitor or DMSO control were incubated with the relevant proteasome sample for 60 min at room temperature (this step was not included in activity check experiments where compounds were not used).
(§12) Following the 60 min incubation of proteasome and compound (if required), assays were initiated with the addition of 4 μl of substrate mix (containing substrate and the luciferin detection reagent) using an electronic multichannel pipette. Final assay concentrations of substrates used were either 20 μM Suc-Leu-Leu-Val-Tyr-aminoluciferin, 15 μM Z-Leu-Arg-Arg-aminoluciferin, or 20 μM Z-Nle-Pro-Nle-Asp-aminoluciferin for chymotrypsin-, trypsin- or caspase-like activity respectively.
(§13) Luminescence was read either kinetically or as an endpoint read using an EnVision 2102 Multilabel Reader (PerkinElmer, Inc) with 0.2 s per well reading time. When kinetic assays were run, luminescence was read every 5 min for 90 min. Endpoint assays were run for 60 min before luminescence was read. All data processing and linear fit analyses were performed using Microsoft Excel for Microsoft 365 software (Redmond, Washington; https://www.microsoft.com/).

Assay [3] concerns the target recombinant β4^R mutant T. cruzi proteasome (chymotrypsin-like activity) (Trypanosoma cruzi, UniProt V5BU39+V5C017, F24L/I29M). The assay is described as follows: biochemical. The method, then: as §9, §1, §2, §10, §11, §12, §13
For assay [4], the target named is native T. cruzi proteasome (caspase-like activity, β1) (Trypanosoma cruzi, UniProt V5BHX1). The assay is described as follows: Caspase-like activity assay (Proteasome-Glo), native T. cruzi proteasome. The conditions noted are these: mean ± SD, N = 3; read-out: pIC50, Caspase Assay, Native (converted). The method, then: as §1, §2, §3, §4, §5, §6, §7, §8
Assay [5] addresses recombinant WT T. cruzi proteasome (caspase-like activity, β1) (Trypanosoma cruzi, UniProt V5BHX1). Briefly: Caspase-like activity assay (Proteasome-Glo), recombinant wild-type T. cruzi proteasome. The method, then:
as §1, §2, §3, §4, §5, §6, §7, §8

Assay [6] deals with recombinant β4^R mutant T. cruzi proteasome (caspase-like activity) (Trypanosoma cruzi, UniProt V5BHX1). Briefly: Caspase-like activity assay (Proteasome-Glo), recombinant β4^R mutant T. cruzi proteasome. The method, then:
as §9, §1, §2, §10, §11, §12, §13

Take `O=C(Nc1ccc(F)c(-c2cn3nc(-c4ccccc4)cnc3n2)c1)N1CCCC1` [DDD01012248]: the IC50 was 30.9 nM in assay [1]; 41.7 nM in assay [2]; 2000 nM in assay [3]; more than 30200 nM in assay [4]; more than 30200 nM in assay [5]; more than 30200 nM in assay [6]. For the same compound, the “inhibition of chymotrypsin activity, Δβ1Δβ2 mutant, fixed concentration” value in assay [2] (1 μM compound (Fig. 7B)) is reported as “full inhibition”. Also, the “inhibition of chymotrypsin activity, β4^R mutant, fixed concentration” value in assay [3] (1 μM compound (Fig. 7C)) is “no notable inhibition”. Moreover, in assay [6] (1 μM compound (Fig. S4)), the “inhibition of caspase activity, β4^R mutant, fixed concentration” value is “did not inhibit”.
As for `O=C(Nc1ccc(F)c(C(=O)NC2CC2)c1)c1ccc(COc2ccccc2)o1` [DDD02091966, N-(3-(cyclopropylcarbamoyl)-4-fluorophenyl)-5-(phenoxymethyl)furan-2-carboxamide], the IC50 is 38 nM in assay [1]; 45.7 nM in assay [2]; more than 30200 nM in assay [3]; more than 30200 nM in assay [4]; more than 30200 nM in assay [5]; more than 30200 nM in assay [6]. Further, the “extent of inhibition in chymotrypsin dose-response curve, Δβ1Δβ2 mutant” value in assay [2] (top of dose-response curve) is on record as “unable to fully inhibit”. For the same compound, in assay [5] (native and recombinant T. cruzi proteasomes), the “inhibition of the caspase activity” value is reported as “no inhibition”.
